Assay results from PMC11876601 (Molecular Systems Biology, 2025).
Like-named read-outs stand apart in the source and are kept apart here.

Tested on: Suit2-07 cells
Experiment: Cell proliferation assay, GEM + ATR inhibitor (Incucyte confluence, 72 h);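 further: Suit2-07 cells grown in 96-well plates at 37 °C, 5% CO2, raw 72 h confluence taken without normalizing to starting confluence, each experiment done in triplicate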
Assay type: cell-based, human
Conditions: Suit2-07; for EC50: Homo sapiens, 72 h; for Response: R1; for Curve bottom / Curve top: plateau of fitted curve, ratio drug/vehicle confluence
[1] = experiment ATRi (ATR inhibitor alone), -log10 of EC50 [M], read-out: pEC50 (converted)
[2] = experiment ATRi (ATR inhibitor alone), mean (one replicate), read-out: EC50 mean
[3] = experiment ATRi (ATR inhibitor alone), replicate R1, read-out: EC50
[4] = GEM+ATRi_dose1, GEM 0 nM + ATRi 10 nM, in % (unit assumed)
[5] = GEM+ATRi_dose1, GEM 1 nM + ATRi 10 nM, in % (unit assumed)
[6] = GEM+ATRi_dose1, GEM 3 nM + ATRi 10 nM, in % (unit assumed)
[7] = GEM+ATRi_dose1, GEM 10 nM + ATRi 10 nM, in % (unit assumed)
[8] = GEM+ATRi_dose1, GEM 30 nM + ATRi 10 nM, in % (unit assumed)
[9] = GEM+ATRi_dose1, GEM 100 nM + ATRi 10 nM, in % (unit assumed)
[10] = GEM+ATRi_dose1, GEM 300 nM + ATRi 10 nM, in % (unit assumed)
[11] = GEM+ATRi_dose1, GEM 1000 nM + ATRi 10 nM, in % (unit assumed)
[12] = GEM+ATRi_dose1, GEM 3000 nM + ATRi 10 nM, in % (unit assumed)
[13] = GEM+ATRi_dose2, GEM 0 nM + ATRi 3 nM, in % (unit assumed)
[14] = GEM+ATRi_dose2, GEM 1 nM + ATRi 3 nM, in % (unit assumed)
[15] = GEM+ATRi_dose2, GEM 3 nM + ATRi 3 nM, in % (unit assumed)
[16] = GEM+ATRi_dose2, GEM 10 nM + ATRi 3 nM, in % (unit assumed)
[17] = GEM+ATRi_dose2, GEM 30 nM + ATRi 3 nM, in % (unit assumed)
[18] = GEM+ATRi_dose2, GEM 100 nM + ATRi 3 nM, in % (unit assumed)
[19] = GEM+ATRi_dose2, GEM 300 nM + ATRi 3 nM, in % (unit assumed)
[20] = GEM+ATRi_dose2, GEM 1000 nM + ATRi 3 nM, in % (unit assumed)
[21] = GEM+ATRi_dose2, GEM 3000 nM + ATRi 3 nM, in % (unit assumed)
[22] = GEM+ATRi_dose3, GEM 0 nM + ATRi 30 nM, in % (unit assumed)
[23] = GEM+ATRi_dose3, GEM 1 nM + ATRi 30 nM, in % (unit assumed)
[24] = GEM+ATRi_dose3, GEM 3 nM + ATRi 30 nM, in % (unit assumed)
[25] = GEM+ATRi_dose3, GEM 10 nM + ATRi 30 nM, in % (unit assumed)
[26] = GEM+ATRi_dose3, GEM 30 nM + ATRi 30 nM
[27] = GEM+ATRi_dose3, GEM 100 nM + ATRi 30 nM, in % (unit assumed)
[28] = GEM+ATRi_dose3, GEM 300 nM + ATRi 30 nM, in % (unit assumed)
[29] = GEM+ATRi_dose3, GEM 1000 nM + ATRi 30 nM, in % (unit assumed)
[30] = GEM+ATRi_dose3, GEM 3000 nM + ATRi 30 nM, in % (unit assumed)
[31] = experiment ATRi (ATR inhibitor alone)
[32] = experiment ATRi, ATRi 3 nM, GEM 0 nM, in % (unit assumed)
[33] = experiment ATRi, ATRi 10 nM, GEM 0 nM, in % (unit assumed)
[34] = experiment ATRi, ATRi 30 nM, GEM 0 nM, in % (unit assumed)
[35] = experiment ATRi, ATRi 100 nM, GEM 0 nM, in % (unit assumed)
[36] = experiment ATRi, ATRi 300 nM, GEM 0 nM, in % (unit assumed)
[37] = experiment ATRi, ATRi 1000 nM, GEM 0 nM, in % (unit assumed)
[38] = experiment ATRi, ATRi 3000 nM, GEM 0 nM, in % (unit assumed)
[39] = experiment ATRi, ATRi 10000 nM, GEM 0 nM, in % (unit assumed)

Method: Cells were seeded at 5000 cells/well into 96-well flat bottom plates (Eppendorf) and allowed to attach overnight. […] Cells were incubated for 72 h at 37 °C and 5% CO2. Cell confluence readouts at 72 h were either normalized to their initial confluence using the Incucyte software (AsPC-1) or used without prior normalization (all others). […] Each experiment was performed in triplicates, the data was plotted as mean ± standard deviation (s.d.).

In the case of `CNCc1ccc(-c2cc(-c3nc(-c4ccc(S(=O)(=O)C(C)C)cc4)cnc3N)on2)cc1` [Berzosertib], the EC50 [1] is reported as 8.32e-07 M, the EC50 [2] is reported as 8.26e-07 M and the EC50 [3] is reported as 8.26e-07 M. For the same molecule, the Response [4] was 98.77, the Response [5] was 98.71 and the Response [6] was 96.04. For the same molecule, the Response [7] was 36.30, the Response [8] was 15.43 and the Response [9] was 14.13. For the same molecule, the Response [10] was 12.00, the Response [11] was 12.45 and the Response [12] was 11.51. The Response [13] was 99.37, the Response [14] was 98.07 and the Response [15] was 44.64. It also gave a Response [16] of 20.67, a Response [17] of 15.78 and a Response [18] of 12.95. It also gave a Response [19] of 13.27, a Response [20] of 13.27 and a Response [21] of 11.05. The Response [22] was 92.60, the Response [23] was 79.33 and the Response [24] was 33.65. The Response [25] was 15.80, the Response [26] was 15.08 and the Response [27] was 13.63. The Response [28] was 12.25, the Response [29] was 9.74 and the Response [30] was 10.10. The Curve bottom [31] was 1.01, the Curve top [31] was 0.09 and the Response [32] was 98.72. It also gave a Response [33] of 98.54, a Response [34] of 98.42 and a Response [35] of 98.94. The Response [36] was 89.08, the Response [37] was 45.00 and the Response [38] was 16.95. For the same molecule, the Response [39] was 8.62, the Curve bottom (experiment GEM+ATRi_dose1) was 1.01 and the Curve top (experiment GEM+ATRi_dose1) was 0.13. For the same molecule, the Curve bottom (experiment GEM+ATRi_dose2) was 1.03, the Curve top (experiment GEM+ATRi_dose2) was 0.15 and the Curve bottom (experiment GEM+ATRi_dose3) was 0.95. It also gave a Curve top (experiment GEM+ATRi_dose3) of 0.13.

`C[C@@H]1COCCN1c1cc(C2([S@](C)(=N)=O)CC2)nc(-c2cc[nH]c3nccc2-3)n1` [Ceralasertib] was tested, and the EC50 [1] was 3.24e-06 M, the EC50 [2] was 3.24e-06 M and the EC50 [3] was 3.24e-06 M. The Response [4] was 99.44, the Response [5] was 97.06 and the Response [6] was 98.33. For the same molecule, the Response [7] was 33.90, the Response [8] was 18.26 and the Response [9] was 14.84. For the same molecule, the Response [10] was 14.60, the Response [11] was 10.84 and the Response [12] was 13.52. For the same molecule, the Response [13] was 99.06, the Response [14] was 97.53 and the Response [15] was 42.89. The Response [16] was 18.83, the Response [17] was 15.03 and the Response [18] was 14.03. For the same molecule, the Response [19] was 10.54, the Response [20] was 10.54 and the Response [21] was 14.48. The Response [22] was 99.04, the Response [23] was 98.92 and the Response [24] was 74.44. The Response [25] was 18.78, the Response [26] was 15.93 and the Response [27] was 13.11. It also gave a Response [28] of 12.75, a Response [29] of 9.23 and a Response [30] of 13.00. For the same molecule, the Response [32] was 99.07, the Response [33] was 99.08 and the Response [34] was 98.55. For the same molecule, the Response [35] was 98.02, the Response [36] was 95.91 and the Response [37] was 89.97. It also gave a Response [38] of 57.79, a Response [39] of 20.77 and a Curve top (experiment GEM+ATRi_dose1) of 0.15. It also gave a Curve top (experiment GEM+ATRi_dose2) of 0.14 and a Curve top (experiment GEM+ATRi_dose3) of 0.13.
